{"source": "patent US9682033B2", "about": "“Methods of treating postherpetic neuralgia with a topical formulation of a spiro-oxindole compound” (Teva Pharmaceuticals International GmbH, priority 2015, dated 2017)", "key": {"CYP3A4": {"biological_target": "CYP3A4 (Homo sapiens, UniProt P08684)", "sequence (P08684 whole entry)": "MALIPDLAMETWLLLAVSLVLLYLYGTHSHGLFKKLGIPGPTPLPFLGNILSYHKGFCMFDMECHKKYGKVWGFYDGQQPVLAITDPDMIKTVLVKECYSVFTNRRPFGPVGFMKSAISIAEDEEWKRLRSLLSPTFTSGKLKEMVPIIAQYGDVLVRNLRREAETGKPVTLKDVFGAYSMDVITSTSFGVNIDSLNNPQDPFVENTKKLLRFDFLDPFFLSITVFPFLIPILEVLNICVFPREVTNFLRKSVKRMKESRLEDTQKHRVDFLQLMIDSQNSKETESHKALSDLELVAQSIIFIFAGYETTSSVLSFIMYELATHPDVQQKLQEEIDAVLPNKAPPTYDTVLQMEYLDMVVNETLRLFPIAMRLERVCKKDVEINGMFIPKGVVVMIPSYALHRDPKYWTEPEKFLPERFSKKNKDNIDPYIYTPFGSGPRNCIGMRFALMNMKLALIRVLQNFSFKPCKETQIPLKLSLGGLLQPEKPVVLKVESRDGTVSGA", "assay": "Drug-drug interaction study in healthy subjects: midazolam (CYP3A4 substrate) pharmacokinetics (Biological Example 5)", "settings": "human, in vivo", "text": "This was a single center, open-label, 1-sequence drug-drug interaction study in 32 healthy adult male and female subjects. The study consisted of a 28-day screening period, a 10-day inpatient treatment period, and a follow-up visit. Subjects meeting the study inclusion/exclusion requirements were admitted to the clinical research unit on day −1 and were confined until day 10.\nBlood samples were collected for the assessment of the pharmacokinetics of midazolam and omeprazole.\nThe primary pharmacokinetic endpoints were the geometric mean ratios (90% confidence intervals [CIs]) for Cmax, AUC0-t, and AUC0-inf for midazolam and omeprazole on day 9 versus day 1.\nBlood samples were collected for the assessment of the pharmacokinetics of the major metabolites of midazolam (1-OH-midazolam) and omeprazole (5-OH-omeprazole), and for the spiro-oxindole compound. Further secondary pharmacokinetic variables included Cmax, tmax, AUC0-t, AUC0-inf, CL/F, λz, t1/2, and % AUCext for 1-OH-midazolam and 5-OH-omeprazole, on days 1 and 9, and Cmax, morning predose concentrations (Ctrough), average plasma concentration over the dosing interval (Cave), and area under the plasma concentration-time curve over the dosing interval (AUC0-τ) were presented for the spiro-oxindole compound.\nDescriptive statistics (n, mean, geometric mean, standard deviation [SD], % CV, median, minimum, and maximum) were used to summarize plasma midazolam, omeprazole and their metabolites, and the spiro-oxindole compound concentration for all subjects overall at each scheduled time point. Descriptive statistics (as noted above) were also used to summarize plasma omeprazole, 5-OH-omeprazole, and the spiro-oxindole compound concentration for all subjects overall by CYP2C19 genotype at each scheduled time point. Pharmacokinetic parameters were derived by noncompartmental analysis. Descriptive statistics (as noted above) were used to summarize the calculated pharmacokinetic parameters for midazolam, omeprazole and their metabolites, and the spiro-oxindole compound by treatment for all subjects. Descriptive statistics (as noted above) were also used to summarize the calculated pharmacokinetic parameters for omeprazole, 5-OH-omeprazole, and the spiro-oxindole compound by treatment and CYP2C19 genotype. Plots of geometric mean and individual plasma concentrations and of select pharmacokinetic parameters for midazolam, omeprazole and their metabolites and the spiro-oxindole compound at select sampling times were provided. Additionally, plots of individual select pharmacokinetic parameters by CYP2C19 phenotype for omeprazole at select time points were provided."}, "[1]": {"system": "cultured human lymphocytes", "assay": "In vitro chromosome aberration assay in cultured human lymphocytes (GLP)", "type": "cell-based", "text": "(§1) The spiro-oxindole compound was not genotoxic in the standard battery of genotoxicity tests (GLP), including a bacterial reverse mutation assay, an in vitro chromosome aberration assay in cultured human lymphocytes, and an in vivo rat bone marrow micronucleus test."}, "[2]": {"assay": "Drug-drug interaction study in healthy subjects: pharmacokinetics of the spiro-oxindole compound (Biological Example 5)", "type": "in vivo, human", "text": "Pharmacokinetic parameters were derived by noncompartmental analysis."}, "in vivo": {"assay": "in vivo", "parameters": "species or system rats", "settings": "rat, po", "protocol": "The no-observed-adverse-effect level (NOAEL) was determined to be 150 mg/kg/day in both males and females. […] The NOAEL for maternal toxicity was 50 mg/kg/day. […] The NOAEL for embryo-fetal toxicity was 150 mg/kg/day."}, "rat bone marrow": {"system": "rat bone marrow", "assay": "In vivo rat bone marrow micronucleus test (GLP)", "text": "as §1"}, "[3]": {"assay": "ADME study in the minipig after repeated daily dermal dosing (Biological Example 1)", "type": "in vivo, Göttingen minipig", "settings": "for mean tissue radioactivity concentration / total radioactivity in tissue: 24 h after [^14C] dermal dose", "text": "On the day prior to the first dermal dose, the dorsum and flanks of each animal were carefully clipped using electric clippers and shaved using an electric rotary head shaver (Phillips). Clipping and shaving was as close as possible to the skin, whilst avoiding damage to the dose site. […] The corners of the treatment area (equivalent to about 6% body surface area, 11 cm×19 cm-12 cm×22 cm) were marked using an indelible pen. The process of hair removal was repeated periodically during the dose administration period as necessary."}}, "note": "“Also recorded” adds a separate entry of the source."}
{"smiles": "O=C1N(Cc2ccc(C(F)(F)F)o2)c2ccccc2[C@]12COc1cc3c(cc12)OCO3", "note": "[spiro-oxindole compound, (S)-1′-{[5-(trifluoromethyl)furan-2-yl]methyl}spiro[furo[2,3-f][1,3]benzodioxole-7,3′-indol]-2′(1′H)-one]", "values": [{"measurement": "effect on midazolam pharmacokinetics (in words)", "setting": "CYP3A4", "value": "no relevant effect on midazolam pharmacokinetics"}, {"measurement": "genotoxicity", "setting": "[1]", "value": "not genotoxic"}, {"measurement": "relationship of exposure with CYP2C19 phenotype", "setting": "[2]", "value": "no apparent relationship"}, {"measurement": "mean plasma concentration at the follow-up visit (360±24 hours)", "setting": "[2]; after final application of 8% composition", "value": 0.32629, "unit": "ng/mL"}, {"measurement": "Cmax", "setting": "[2]; both sexes, human, plasma, topical, 8 % composition applied to 53% of BSA, BID, day 9, over 24 hours from the final application, read-out: geometric mean Cmax", "value": 15.1, "unit": "ng/mL"}, {"measurement": "AUC(0-t)", "setting": "[2]; both sexes, human, plasma, topical, 8 % composition applied to 53% of BSA, BID, first 12 hours after the final application, read-out: geometric mean AUC0-12", "value": 133, "unit": "ng·h/mL"}, {"measurement": "concentration at 24 hours", "setting": "[2]; both sexes, human, plasma, topical, 8 % composition applied to 53% of BSA, day 9, after final application of 8% composition (BID, 53% BSA, 7.5 days), read-out: mean plasma concentration at 24 hours postdose", "value": 11.7, "unit": "ng/mL"}, {"measurement": "geometric mean Ctrough (predose value)", "setting": "[2]; day 9, topical 8% composition BID 53% BSA", "value": 12.76052, "unit": "ng/mL"}, {"measurement": "average concentration over the 12-hour period", "setting": "[2]; first 12 hours after the final application", "value": 11075.55, "unit": "pg/mL"}, {"measurement": "steady state (in words)", "setting": "[2]; topical BID dosing", "value": "steady state had not been achieved after 7.5 days of dosing; also recorded: did not reach steady state within 7.5 days"}, {"measurement": "NOAEL", "setting": "in vivo; both sexes", "value": 150, "unit": "mg/kg/day"}, {"measurement": "AUC(0-t)", "setting": "in vivo; female, 50 mg/kg/day", "value": 18000, "unit": "ng·h/mL"}, {"measurement": "Cmax", "setting": "in vivo; female, 50 mg/kg/day", "value": 1440, "unit": "ng/mL"}, {"measurement": "AUC(0-t)", "setting": "in vivo; female, 150 mg/kg/day", "value": 41500, "unit": "ng·h/mL"}, {"measurement": "Cmax", "setting": "in vivo; female, 150 mg/kg/day", "value": 3380, "unit": "ng/mL"}, {"measurement": "NOAEL", "setting": "in vivo; female, NOAEL for embryo-fetal toxicity", "value": 150, "unit": "mg/kg/day"}, {"measurement": "NOAEL", "setting": "in vivo; female, NOAEL for maternal toxicity", "value": 50, "unit": "mg/kg/day"}, {"measurement": "genotoxicity", "setting": "rat bone marrow", "value": "not genotoxic"}, {"measurement": "Cmax", "setting": "[3]; male, Göttingen, minipig, plasma, topical or ocular, 70 mg ointment/kg, minipigs, 21 days of repeated dermal dosing, read-out: mean maximum observed concentration (Cmax) in plasma", "value": 15, "unit": "ng/mL"}, {"measurement": "mean tissue radioactivity concentration", "setting": "[3]; minipig, bone marrow", "value": "154 ng equivalents spiro-oxindole compound/g"}, {"measurement": "mean tissue radioactivity concentration", "setting": "[3]; minipig, fat (abdominal / white)", "value": "273 ng equivalents spiro-oxindole compound/g"}, {"measurement": "mean tissue radioactivity concentration", "setting": "[3]; minipig, fat (brown)", "value": "100 ng equivalents spiro-oxindole compound/g"}, {"measurement": "mean tissue radioactivity concentration", "setting": "[3]; minipig, gall bladder contents", "value": "4870 ng equivalents spiro-oxindole compound/g"}, {"measurement": "total radioactivity in tissue", "setting": "[3]; minipig, heart", "value": "18.5 ng equiv spiro-oxindole compound/g"}, {"measurement": "total radioactivity in tissue", "setting": "[3]; minipig, liver", "value": "74.9 ng equiv spiro-oxindole compound/g"}, {"measurement": "mean tissue radioactivity concentration", "setting": "[3]; minipig, muscle underlying the dose site", "value": "142 ng equivalents spiro-oxindole compound/g"}, {"measurement": "mean tissue radioactivity concentration", "setting": "[3]; minipig, skin from the dose site", "value": "25500 ng equivalents spiro-oxindole compound/g"}, {"measurement": "mean tissue radioactivity concentration", "setting": "[3]; minipig, skin remote from the dose site", "value": "111 ng equivalents spiro-oxindole compound/g"}, {"measurement": "systemic exposure (in words)", "setting": "[3]; minipigs, repeated daily dermal dosing of 8% ointment", "value": "low systemic exposure"}]}
